PubChem BioAssay AID194 (DTP/NCI, 2004)
“And” between values parts separate entries of the source, which are not always exact repeats. Equal entries are not always repeated. Results filed as inconclusive are left out.

System: BDF1 mice, B16 melanoma s.c., survival/tumor T/C
Test: NCI In Vivo Anticancer Drug Screen. Data for tumor model B16 Melanoma (subcutaneous) in B6D2F1 (BDF1) mice
Protocol: The antitumor activity of compounds was measured in mice bearing transplantable tumors. Survival or tumor size were measured and the results are expressed as the measurement made in the treated group (T) divided by the measurement made in the vehicle treated control group (C). The tumor model used in this assay is B16 Melanoma (subcutaneous) in B6D2F1 (BDF1) mice

[1] = endpoint: median survival time, dose: 1.0 mg/kg/injection, schedule: Q01DX009 (ip), vehicle: saline, higher = longer survival
[2] = endpoint: median survival time, dose: 2.0 mg/kg/injection, schedule: Q01DX009 (ip), vehicle: saline, higher = longer survival
[3] = endpoint: median survival time, dose: 4.0 mg/kg/injection, schedule: Q01DX009 (ip), vehicle: saline, higher = longer survival

Question: Which T/C (endpoint: median survival time, dose: 6.25 mg/kg/injection, schedule: Q01DX009 (ip), vehicle: saline, higher = longer survival) does the source give for `CC1(C)N=C(N)N=C(N)N1c1ccc(CCC(=O)Nc2ccc(S(=O)(=O)F)cc2)c(Cl)c1` here?
Answer: 108 % of control

Question: What about the T/C (endpoint: median survival time, dose: 12.5 mg/kg/injection, schedule: Q01DX009 (ip), vehicle: saline, higher = longer survival) of the same compound?
Answer: 103 % of control

Question: And the T/C (endpoint: median survival time, dose: 25.0 mg/kg/injection, schedule: Q01DX009 (ip), vehicle: saline, higher = longer survival)?
Answer: 114 % of control

Question: With `FC(F)c1nc2nc(Cl)c(Cl)nc2[nH]1` as the compound, how does the T/C (endpoint: median survival time, dose: 2.0 mg/kg/injection, schedule: Q01DX009 (ip), vehicle: Klucel (hydroxypropylcellulose) (HPC), higher = longer survival) read?
Answer: 106 % of control

Question: And the T/C (endpoint: median survival time, dose: 4.0 mg/kg/injection, schedule: Q01DX009 (ip), vehicle: Klucel (hydroxypropylcellulose) (HPC), higher = longer survival)?
Answer: 114 % of control

Question: What about the T/C (endpoint: median survival time, dose: 8.0 mg/kg/injection, schedule: Q01DX009 (ip), vehicle: Klucel (hydroxypropylcellulose) (HPC), higher = longer survival) of the same compound?
Answer: 97 % of control

Question: What about the T/C (endpoint: median survival time, dose: 8.0 mg/kg/injection, schedule: Q01DX009 (ip), vehicle: other, higher = longer survival) of the same compound?
Answer: 157 % of control

Question: What about the T/C (endpoint: median survival time, dose: 16.0 mg/kg/injection, schedule: Q01DX009 (ip), vehicle: Klucel (hydroxypropylcellulose) (HPC), higher = longer survival) of the same compound?
Answer: 102 % of control

Question: And the T/C (endpoint: median survival time, dose: 16.0 mg/kg/injection, schedule: Q01DX009 (ip), vehicle: other, higher = longer survival)?
Answer: 117 % of control

Question: And the T/C (endpoint: median survival time, dose: 32.0 mg/kg/injection, schedule: Q01DX009 (ip), vehicle: Klucel (hydroxypropylcellulose) (HPC), higher = longer survival)?
Answer: 121 % of control

Question: And the T/C (endpoint: median survival time, dose: 32.0 mg/kg/injection, schedule: Q01DX009 (ip), vehicle: other, higher = longer survival)?
Answer: 89 % of control

Question: For `Cc1c(N)nc(C(CC(N)=O)NCC(N)C(N)=O)nc1C(=O)NC(C(=O)NC(C)C(O)CC(=O)NC(C(=O)NC(OC1OC(C)C(N)C(O)C1O)C(O)c1nc(-c2nc(C(=O)NCCCC(N)CC(=O)NCCCNCCCCN)cs2)cs1)C(C)O)C(OC1OC(CO)C(O)C(O)C1OC1OC(CO)C(O)C(OC(N)=O)C1O)c1cnc[nH]1` (stereo unspecified), which T/C [1] is on record?
Answer: 173 % of control

Question: What about the T/C [2] of the same compound?
Answer: 174 % of control

Question: And the T/C [3]?
Answer: 160 % of control

Question: What does the source list for `CCCCS(=N)(=O)CC[C@H](N)C(=O)O` (stereo partly specified)?
Answer: T/C (endpoint: median survival time, dose: 444.0 mg/kg/injection, schedule: Q04HX003 (ip), vehicle: saline, higher = longer survival): 104 % of control; T/C (endpoint: median survival time, dose: 888.0 mg/kg/injection, schedule: Q04HX003 (ip), vehicle: saline, higher = longer survival): 100 % of control; T/C (endpoint: median survival time, dose: 1776.0 mg/kg/injection, schedule: Q04HX003 (ip), vehicle: saline, higher = longer survival): 102 % of control

Question: Which T/C (endpoint: median survival time, dose: 0.2 mg/kg/injection, schedule: Q01DX009 (ip), vehicle: saline, higher = longer survival) does the source give for `Nc1ncn(C2OC(CO)C(O)C2O)c(=O)n1` (stereo unspecified) here?
Answer: 100 % of control

Question: And the T/C (endpoint: median survival time, dose: 0.4 mg/kg/injection, schedule: Q01DX009 (ip), vehicle: saline, higher = longer survival)?
Answer: 104 % of control

Question: And the T/C (endpoint: median survival time, dose: 0.5 mg/kg/injection, schedule: Q01DX009 (ip), vehicle: saline, higher = longer survival)?
Answer: 87 % of control

Question: And the T/C (endpoint: median survival time, dose: 0.75 mg/kg/injection, schedule: Q01DX009 (ip), vehicle: Klucel (hydroxypropylcellulose) (HPC), higher = longer survival)?
Answer: 111 % of control

Question: What about the T/C (endpoint: median survival time, dose: 0.8 mg/kg/injection, schedule: Q01DX009 (ip), vehicle: saline, higher = longer survival) of the same compound?
Answer: 123 % of control

Question: What about the T/C [1] of the same compound?
Answer: 105 % of control

Question: And the T/C (endpoint: median survival time, dose: 1.6 mg/kg/injection, schedule: Q01DX009 (ip), vehicle: saline, higher = longer survival)?
Answer: 106 % of control

Question: And the T/C (endpoint: median survival time, dose: 3.2 mg/kg/injection, schedule: Q01DX009 (ip), vehicle: saline, higher = longer survival)?
Answer: 114 % of control and 116 % of control

Question: What about the T/C (endpoint: median tumor weight (est.), dose: 0.75 mg/kg/injection, schedule: Q01DX009 (ip), vehicle: saline, higher = larger tumour) of the same compound?
Answer: 87 % of control and 96 % of control

Question: And the T/C (endpoint: median tumor weight (est.), dose: 1.5 mg/kg/injection, schedule: Q01DX009 (ip), vehicle: saline, higher = larger tumour)?
Answer: 41 % of control and 48 % of control

Question: What about the T/C (endpoint: median tumor weight (est.), dose: 3.0 mg/kg/injection, schedule: Q01DX009 (ip), vehicle: saline, higher = larger tumour) of the same compound?
Answer: 52 % of control and 57 % of control

Question: And the T/C (endpoint: median tumor weight (est.), dose: 6.0 mg/kg/injection, schedule: Q01DX009 (ip), vehicle: saline, higher = larger tumour)?
Answer: 21 % of control and 26 % of control

Question: With `CCCCCCCC(=O)OCC(=O)[C@]1(O)Cc2c(O)c3c(c(O)c2[C@@H](OC2CC(N)C(O)C(C)O2)C1)C(=O)c1c(OC)cccc1C3=O` (stereo partly specified) as the compound, how does the T/C (endpoint: median survival time, dose: 0.5 mg/kg/injection, schedule: Q01DX009 (ip), vehicle: saline with Tween-80, higher = longer survival) read?
Answer: 98 % of control

Question: What about the T/C (endpoint: median survival time, dose: 1.0 mg/kg/injection, schedule: Q01DX009 (ip), vehicle: saline with Tween-80, higher = longer survival) of the same compound?
Answer: 109 % of control

Question: Which T/C [1] does the source give for `Nc1nc([Se])c2ncn(C3OC(CO)C(O)C3O)c2n1` (stereo unspecified) here?
Answer: 108 % of control

Question: What about the T/C [2] of the same compound?
Answer: 98 % of control and 121 % of control

Question: What about the T/C [3] of the same compound?
Answer: 121 % of control

Question: What about the T/C (endpoint: median survival time, dose: 8.0 mg/kg/injection, schedule: Q01DX009 (ip), vehicle: saline, higher = longer survival) of the same compound?
Answer: 108 % of control

Question: What about the T/C (endpoint: median survival time, dose: 16.0 mg/kg/injection, schedule: Q01DX009 (ip), vehicle: saline, higher = longer survival) of the same compound?
Answer: 111 % of control
